Results on 1 molecule are retold here after US7429596B2, “1H-pyrrolo [2,3-D] pyrimidine derivatives and methods of use thereof” (The Regents of the University of California, priority 2003, dated 2008).

The structures appear in SMILES notation. Changes are numbered by the printed parent chain. “And” between values parts separate entries of the source, which are not always exact repeats. Equal entries are not always repeated. “Also recorded” adds a separate entry of the source. Where two headings read alike, the source gives them in different places.

The target in data set [1] is c-Fyn-wt (Homo sapiens, UniProt P06241). Nature of the data set: Inhibition of Src family kinase Fyn. Type of data set: biochemical. On the procedure: Experiments were performed to determine whether AB129 was capable of inhibiting the Src family kinase, Fyn. […] Such a compound would serve as a test compound for determining the importance of dual inhibition of CBR1 and protein kinases.
c-Fyn-wt, sequence (P06241 whole entry): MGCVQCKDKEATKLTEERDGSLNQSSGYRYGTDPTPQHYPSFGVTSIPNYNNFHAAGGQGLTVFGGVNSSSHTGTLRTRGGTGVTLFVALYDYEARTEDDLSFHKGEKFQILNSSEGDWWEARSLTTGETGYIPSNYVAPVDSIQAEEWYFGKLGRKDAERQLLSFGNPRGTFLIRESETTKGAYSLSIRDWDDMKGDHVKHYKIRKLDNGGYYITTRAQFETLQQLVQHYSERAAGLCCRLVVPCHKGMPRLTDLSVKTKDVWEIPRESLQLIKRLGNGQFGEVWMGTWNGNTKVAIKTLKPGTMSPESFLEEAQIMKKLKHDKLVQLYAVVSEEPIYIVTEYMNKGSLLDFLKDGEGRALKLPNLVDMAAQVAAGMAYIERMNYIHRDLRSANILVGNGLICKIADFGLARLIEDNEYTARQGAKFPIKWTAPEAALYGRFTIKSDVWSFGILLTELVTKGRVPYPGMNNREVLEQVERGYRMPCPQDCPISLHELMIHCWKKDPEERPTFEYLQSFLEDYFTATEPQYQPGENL

Data set [2] concerns the target T1, carbonyl reductase 1 (CBR1) (Homo sapiens, UniProt P16152).
T1 sequence (P16152 1-277): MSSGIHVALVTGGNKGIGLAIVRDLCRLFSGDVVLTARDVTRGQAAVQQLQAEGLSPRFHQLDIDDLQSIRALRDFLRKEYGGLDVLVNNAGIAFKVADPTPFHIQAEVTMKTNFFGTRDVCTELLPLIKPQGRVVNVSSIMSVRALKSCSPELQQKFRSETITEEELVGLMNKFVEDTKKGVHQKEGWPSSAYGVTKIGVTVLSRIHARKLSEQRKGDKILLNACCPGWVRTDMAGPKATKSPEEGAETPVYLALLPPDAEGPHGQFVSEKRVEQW
The data set is described as follows: Production of daunorubicinol from daunorubicin.
Excerpt: To independently confirm the ability of AB129 to inhibit CBR1 in A549 cells, an assay based on the role of CBR1 in attenuating the anti-cancer action of daunorubicin was employed.

Data set [3] in a line: i.v. serum half-life. Particulars: iv, read-out: i.v. serum half-life (t1/2). It counts as in vivo. The source says: The data obtained from these cell culture assays and animal studies can be used in formulating a dosage range that is not toxic for use in human. The dosage of such compounds lies within a range of circulating concentrations that include the ED50 with little or no toxicity. The dosage can vary within this range depending upon the dosage form employed and the route of administration utilized. The exact formulation, route of administration and dosage can be chosen by the individual physician in view of the patient's condition. (See, e.g., Fingl et al., 1975, In: The Pharmacological Basis of Therapeutics, Ch. 1, p. 1). One of the advantages, among others, of using the AB129-type compounds and analogs described herein to treat disease, e.g., lung cancer or colon cancer is their lack of toxicity.

The target of data set [4] is T2, N90V mutant of carbonyl reductase 1 (CBR1) (Homo sapiens, UniProt P16152, N90V).
T2 construct: made in house
T2 sequence (P16152 1-277 N90V): T1 sequence (P16152 1-277) with N90V
The data set is described as follows: Sensitivity of N90V mutant CBR1 to inhibitor. It counts as biochemical. Particulars: FIG. 30. The source says: To understand the basis for the potency of AB129 against CBR1, a computer algorithm was used for molecular docking of AB129 to an available crystal structure of porcine CBR1 to produce a model of the bound structure of AB129 (FIG. 24). This modeled co-structure was experimentally validated by site-directed mutagenesis of multiple amino acids in the proposed AB129 binding pocket (including a conserved Asn residue common to all SDR family members—FIGS. 25-27) and identification of AB129 resistant mutants of CBR1 (FIGS. 28-30). This binding model also potentially explains the importance of the hydroxyl moiety attached to the phenyl ring of AB129, as being critical for a H-bonding interaction with an active site Asn.

For data set [5], the system named is A549 lung carcinoma cells. The conditions noted are these: human, 2 days, 0.4 μM.
Data set [6] has as its system A549 lung carcinoma cells. The data set is described as follows: Cell cycle of A549 cells.
The subject of data set [7] is A549 lung carcinoma cells. The data set is described as follows: A549 cell killing / viability.
The target of data set [8] is T1, carbonyl reductase 1 (CBR1). Nature of the data set: CBR1 inhibition: menadione reduction, NADPH absorbance at 340 nm. It counts as biochemical. On the set-up: 6-His (N); made in house; host or cells: E. coli. Here is the method:
CBR was expressed in E. coli and purified using glutathione beads; CBR has a naturally occurring. glutathione binding site. An N-terminal 6-His tagged protein was prepared to allow purification by metal affinity. Our CBR assay employs the synthetic substrate Menadione (2-methyl-1,4-naphthoquinone). Reaction progress is monitored by the decrease in NADPH-absorbance at 340 nm. Saturating concentrations of Menadione with variable concentrations of NADPH are employed in order to ascertain KI values.

For `CC(C)(C)n1nc(-c2cccc(O)c2)c2c(N)ncnc21` [AB129], the IC50 in data set [1] (Table 1, read-out: IC50 anti-c-Fyn-wt) was 8 nM; in data set [1] (read-out: anti-Fyn IC50), 10 nM; in data set [8] (FIG. 5, read-out: IC50, CBR1 catalyzed reduction of menadione by NADPH), about 5000 nM; in data set [8] (Table 1, read-out: IC50 anti-hCBR1) it was 790 nM. For the same molecule, in data set [2], the “production of cardiotoxic metabolite daunorubicinol from daunorubicin” value is on record as “able to block production”. Besides, the half-life in data set [3] lay within 2 to 2.5 h. Further, the “sensitivity of N90V mutant CBR1 versus wild type CBR1” value in data set [4] is listed as “less sensitive”. For the same molecule, in data set [5], the “loss of viability of A549 cells” value is 15%. In addition, in data set [6], the “A549 cells in G2/M phase” value is reported as “approximately 12%”. Further, the “cell killing in human lung cancer cell line A549” value in data set [7] is on record as “mild to severe cell killing; also recorded: most potent A549 cell killing response”. The Ki in data set [8] (NADPH competitive) was 400 nM and 300 to 400 nM. In addition, in data set [8] (with respect to NADPH), the “mode of inhibition of CBR1” value is given as “pure NADPH competitive inhibitor”.

One may read the IC50 as the concentration that inhibits the measured activity by half. By Ki is commonly meant a dissociation constant, usually derived from enzyme kinetics or from competition with a known ligand. Read a high Ki as lower affinity.
